In patent publication US20040002425A1, “Triketone derivatives and herbicides” (Idemitsu Kosan Co., Ltd., priority 1998, published 2004):

Tested on: Transplanted paddy rice plant
Assay: Biological Test 1 (treatment on the 3rd day after transplantation): chemical injury to paddy rice
Format: in vivo
Set-up: scale not given here
Conditions: Treatment performed 3 days after transplantation
Description: (1) Preparation of Herbicide
Talc (57 parts by weight) and bentonite (40 parts by weight), both serving as carriers, and sodium alkylbenzenesulfate (3 parts by weight) serving as a surfactant were homogeneously ground and mixed to thereby obtain a carrier for water-dispersible powder.
Subsequently, to the water-dispersible powder (90 parts by weight), the triketone derivative (compound No. A-1) produced in Example I-1 (10 parts by weight) was added, and the resultant mixture was homogeneously ground and mixed to thereby obtain a herbicide.
(i) Biological Test 1 (Soaking in Water/Treatment on the 3rd Day After Transplantation)
A Wagner pot (1/2000 are) was filled with paddy soil, and seeds of barnyard grass were planted on the surface layer of the soil, and further, rice seedlings grown to the 2.5-leaf stage were transplanted.
Subsequently, water was poured in the pot to a height of 3 cm above the soil surface, and placed in a greenhouse where the temperature was maintained at 20-25° C., to thereby grow the plant under suitable conditions.
On the 3rd day after transplantation, the herbicide prepared in (1) above was applied to the plant in a predetermined amount. On the 30th day after treatment with the herbicide, weed-killing ratio, herbicidal effect, and extent of chemical injury to paddy rice were examined.
In Biological tests 1 and 2, herbicidal effect and extent of chemical injury were evaluated according to the below-described standards.
3) Chemical Injury to Paddy Rice
Chemical injury to paddy rice was evaluated according to the following criteria.

[1] = dose 100 g/ha, examined on the 30th day after treatment
[2] = dose 200 g/ha, examined on the 30th day after treatment

Compound | Chemical injury, Transplanted paddy rice plant [1] | Chemical injury, Transplanted paddy rice plant [2] | Chemical injury, Transplanted paddy rice plant (dose 100 g/ha) | Chemical injury, Transplanted paddy rice plant (dose 200 g/ha)
O=C1CCCC(O)=C1C(=O)c1ccc2c(c1Cl)CCS2(=O)=O [A-1, 4-chloro-5-(1,3-dioxocyclohexan-2-yl)carbonyl-2,3-dihydrobenzothiophene-1,1-dioxide] | 0 | 0 | – | –
Cc1c(C(=O)C2=C(O)CCCC2=O)ccc2c1CCS2(=O)=O [A-2, 4-methyl-5-(1,3-dioxocyclohexan-2-yl)carbonyl-2,3-dihydrobenzothiophene-1,1-dioxide] | 0 | 0 | – | –
Cc1cc(C(=O)C2=C(O)CCCC2=O)c(Cl)c2c1S(=O)(=O)CC2 [A-3, 4-chloro-7-methyl-5-(1,3-dioxocyclohexan-2-yl) carbonyl-2,3-dihydrobenzothiophene-1,1-dioxide] | 1 | 3 | – | –
Cc1cc(C(=O)C2=C(O)CCCC2=O)c(C)c2c1S(=O)(=O)CC2 [A-4, 4,7-dimethyl-5-(1,3-dioxocyclohexan-2-yl)carbonyl-2,3-dihydrobenzothiophene-1,1-dioxide] | 0 | 1 | – | –
COc1c(C(=O)C2=C(O)CCCC2=O)ccc2c1CCS2(=O)=O [A-5, 4-methoxy-5-(1,3-dioxocyclohexan-2-yl)carbonyl-2,3-dihydrobenzothiophene-1,1-dioxide] | 0 | 0 | – | –
CSc1c(C(=O)C2=C(O)CCCC2=O)ccc2c1CCS2(=O)=O [A-6, 4-methylthio-5-(1,3-dioxocyclohexan-2-yl)carbonyl-2,3-dihydrobenzothiophene-1,1-dioxide] | 1 | 3 | – | –
CC1CCC(O)=C(C(=O)c2ccc3c(c2Cl)CCS3(=O)=O)C1=O (centres unmarked) [A-7, 4-chloro-5-(4-methyl-1,3-dioxocyclohexan-2-yl)carbonyl-2,3-dihydrobenzothiophene-1,1-dioxide] | 1 | 2 | – | –
CC1(C)CCC(O)=C(C(=O)c2ccc3c(c2Cl)CCS3(=O)=O)C1=O [A-8, 4-chloro-5-(4,4-dimethyl-1,3-dioxocyclohexan-2-yl)carbonyl-2,3-dihydrobenzothiophene-1,1-dioxide] | 1 | 3 | – | –
CC1(C)CC(=O)C(C(=O)c2ccc3c(c2Cl)CCS3(=O)=O)=C(O)C1 [A-9, 4-chloro-5-(5,5-dimethyl-1,3-dioxocyclohexan-2-yl)carbonyl-2,3-dihydrobenzothiophene-1,1-dioxide] | 1 | 3 | – | –
Cc1cc(C(=O)C2=C(O)CC(C)(C)CC2=O)c(Cl)c2c1S(=O)(=O)CC2 [A-10, 4-chloro-7-methyl-5-(5,5-dimethyl-1,3-dioxocyclohexan-2-yl)carbonyl-2,3-dihydrobenzothiophene-1,1-dioxide] | 1 | 3 | – | –
Cc1cc(C(=O)C2=C(O)CCC(C)(C)C2=O)c(Cl)c2c1S(=O)(=O)CC2 [A-11, 4-chloro-7-methyl-5-(4,4-dimethyl-1,3-dioxocyclohexan-2-yl)carbonyl-2,3-dihydrobenzothiophene-1,1-dioxide] | 1 | 3 | – | –
CC1CC(=O)C(C(=O)c2ccc3c(c2Cl)CCS3(=O)=O)=C(O)C1 (centres unmarked) [A-12, 4-chloro-5-(5-methyl-1,3-dioxocyclohexan-2-yl)carbonyl-2,3-dihydrobenzothiophene-1,1-dioxide] | 1 | 2 | – | –
CC1CC(C)(C)C(=O)C(C(=O)c2ccc3c(c2Cl)CCS3(=O)=O)=C1O (centres unmarked) [A-13, 4-chloro-5-(4,4,6-trimethyl-1,3-dioxocyclohexan-2-yl)carbonyl-2,3-dihydrobenzothiophene-1,1-dioxide] | 1 | 3 | – | –
CC1CC(C)C(O)=C(C(=O)c2ccc3c(c2Cl)CCS3(=O)=O)C1=O (centres unmarked) [A-14, 4-chloro-5-(4,6-dimethyl-1,3-dioxocyclohexan-2-yl)carbonyl-2,3-dihydrobenzothiophene-1,1-dioxide] | 1 | 2 | – | –
CC1(C)CC(C)(C)C(=O)C(C(=O)c2ccc3c(c2Cl)CCS3(=O)=O)C1=O [A-15, 4-chloro-5-(4,4,6,6-tetramethyl-1,3-dioxocyclohexan-2-yl)carbonyl-2,3-dihydrobenzothiophene-1,1-dioxide] | 1 | 3 | – | –
CC1CC(O)=C(C(=O)c2ccc3c(c2Cl)CCS3(=O)=O)C(=O)C1C (centres unmarked) [A-16, 4-chloro-5-(4,5-dimethyl-1,3-dioxocyclohexan-2-yl)carbonyl-2,3-dihydrobenzothiophene-1,1-dioxide] | 1 | 3 | – | –
CC1Cc2c(ccc(C(=O)C3=C(O)CCCC3=O)c2Cl)S1(=O)=O (centres unmarked) [A-17, 4-chloro-2-methyl-5-(1,3-dioxocyclohexan-2-yl)carbonyl-2,3-dihydrobenzothiophene-1,1-dioxide] | 0 | 1 | – | –

Compound | Chemical injury, Transplanted paddy rice plant [1] | Chemical injury, Transplanted paddy rice plant [2] | Chemical injury, Transplanted paddy rice plant (dose 100 g/ha) | Chemical injury, Transplanted paddy rice plant (dose 200 g/ha)
COc1c(C(=O)C2=C(O)CCCC2=O)ccc2c1CC(C)S2(=O)=O (centres unmarked) [A-18, 4-methoxy-2-methyl-5-(1,3-dioxocyclohexan-2-yl)carbonyl-2,3-dihydrobenzothiophene-1,1-dioxide] | 0 | 1 | – | –
O=C1CCCC([O-])=C1C(=O)c1ccc2c(c1Cl)CCS2(=O)=O.[Na+] [A-19, Sodium Salt of 4-chloro-5-(1,3-dioxocyclohexan-2-yl)carbonyl-2,3-dihydrobenzothiophene-1,1-dioxide] | 0 | 1 | – | –
O=C1CCCC(=O)C1C(=O)c1ccc2c(c1Br)CCS2(=O)=O [A-20, 4-bromo-5-(1,3-dioxocyclohexan-2-yl)carbonyl-2,3-dihydrobenzothiophene-1,1-dioxide] | 0 | 0 | – | –
N#Cc1c(C(=O)C2C(=O)CCCC2=O)ccc2c1CCS2(=O)=O [A-21, 4-cyano-5-(1,3-dioxocyclohexan-2-yl)carbonyl-2,3-dihydrobenzothiophene-1,1-dioxide] | 0 | 0 | – | –
O=C1CCCC(Cl)=C1C(=O)c1ccc2c(c1Cl)CCS2(=O)=O [B-1] | – | – | 0 | 0
CCSC1=C(C(=O)c2ccc3c(c2Cl)CCS3(=O)=O)C(=O)CCC1 [B-2] | – | – | 0 | 0
O=C1CCCC(Sc2ccccc2)=C1C(=O)c1ccc2c(c1Cl)CCS2(=O)=O [B-3] | – | – | 0 | 0
Cc1cc(C(=O)C2=C(Cl)CCCC2=O)c(Cl)c2c1S(=O)(=O)CC2 [B-4] | – | – | 1 | 2
Cc1cc(C(=O)C2=C(Sc3ccccc3)CCCC2=O)c(Cl)c2c1S(=O)(=O)CC2 [B-5] | – | – | 0 | 0
O=C1CCCC(Br)=C1C(=O)c1ccc2c(c1Cl)CCS2(=O)=O [B-6] | – | – | 0 | 0
CSC1=C(C(=O)c2ccc3c(c2Cl)CCS3(=O)=O)C(=O)CCC1 [B-7] | – | – | 0 | 0
CCCSC1=C(C(=O)c2ccc3c(c2Cl)CCS3(=O)=O)C(=O)CCC1 [B-8, 4-chloro-5-[3-(3-propyl)thio-1-oxocyclohexan-2-yl]carbonyl-2,3-dihydrobenzothiophene-1,1-dioxide] | – | – | 0 | 0
CC(C)SC1=C(C(=O)c2ccc3c(c2Cl)CCS3(=O)=O)C(=O)CCC1 [B-9] | – | – | 0 | 0
CCCCSC1=C(C(=O)c2ccc3c(c2Cl)CCS3(=O)=O)C(=O)CCC1 [B-10] | – | – | 0 | 0
O=C1CCCC(SCc2ccccc2)=C1C(=O)c1ccc2c(c1Cl)CCS2(=O)=O [B-11] | – | – | 0 | 0
CON(C)C1=C(C(=O)c2ccc3c(c2Cl)CCS3(=O)=O)C(=O)CCC1 [B-12, 4-chloro-5-[3-(N-methoxymethyl)amino-1-oxocyclohexan-2-yl]carbonyl-2,3-dihydrobenzothiophene-1,1-dioxide] | – | – | 0 | 1
CN(C)C1=C(C(=O)c2ccc3c(c2Cl)CCS3(=O)=O)C(=O)CCC1 [B-13] | – | – | 0 | 0
